# Assay results reported in ChEMBL document CHEMBL1154649, “Anti-HBV agents. Part 3: preliminary structure-activity relationships of tetra-acylalisol A derivatives as potent hepatitis B virus inhibitors” (Bioorg Med Chem Lett, 2009).
# Key:
# [1] = Cytotoxicity against human HepG2(2.2.15) cells; type: cell-based
# Hepatitis B virus [2] = experiment: Antiviral activity against HBV assessed as inhibition of viral surface antigen secretion; type: functional, organism-based
# Hepatitis B virus [3] = experiment: Antiviral activity against HBV assessed as inhibition of viral early antigen secretion; type: functional, organism-based
# [4] = Selectivity index, ratio of CC50 for human HepG2(2.2.15) cells to IC50 for HBV surface antigen secretion; type: functional
# [5] = Selectivity index, ratio of CC50 for human HepG2(2.2.15) cells to IC50 for HBV early antigen secretion; type: functional
IC50 (Hepatitis B virus [2]),IC50 (Hepatitis B virus [3]),SMILES,CC50 [1],Ratio CC50/IC50 [4],Ratio CC50/IC50 [5]
> 1400 µM,> 1400 µM,C[C@H](C[C@H](OC(=O)c1ccccc1I)[C@@H](OC(=O)c1ccccc1I)C(C)(C)OC(=O)c1ccccc1I)C1=C2C[C@H](OC(=O)c3ccccc3I)[C@H]3[C@@]4(C)CCC(=O)C(C)(C)[C@@H]4CC[C@]3(C)[C@@]2(C)CC1,> 1400 µM,,
> 1800 µM,1800 µM,CCCC(=O)O[C@@H](C[C@@H](C)C1=C2C[C@H](OC(=O)CCC)[C@H]3[C@@]4(C)CCC(=O)C(C)(C)[C@@H]4CC[C@]3(C)[C@@]2(C)CC1)[C@@H](OC(=O)CCC)C(C)(C)OC(=O)CCC,> 1800 µM,,
> 2100 µM,> 2100 µM,C[C@H](C[C@H](OC(=O)C1CC1)[C@@H](OC(=O)C1CC1)C(C)(C)OC(=O)C1CC1)C1=C2C[C@H](OC(=O)C3CC3)[C@H]3[C@@]4(C)CCC(=O)C(C)(C)[C@@H]4CC[C@]3(C)[C@@]2(C)CC1,> 2100 µM,,
> 1600 µM,> 1600 µM,C[C@H](C[C@H](OC(=O)[C@H]1CCC(=O)O1)[C@@H](OC(=O)[C@H]1CCC(=O)O1)C(C)(C)OC(=O)[C@@H]1CCC(=O)O1)C1=C2C[C@H](OC(=O)[C@@H]3CCC(=O)O3)[C@H]3[C@@]4(C)CCC(=O)C(C)(C)[C@@H]4CC[C@]3(C)[C@@]2(C)CC1,> 1600 µM,,
13000 µM,22000 µM,Nc1ccn([C@@H]2CS[C@H](CO)O2)c(=O)n1 [LAMIVUDINE],35000 µM,2.7,1.6
480 µM,> 1400 µM,C[C@H](C[C@H](OC(=O)c1ccc(Cl)cc1)[C@@H](OC(=O)c1ccc(Cl)cc1)C(C)(C)OC(=O)c1ccc(Cl)cc1)C1=C2C[C@H](OC(=O)c3ccc(Cl)cc3)[C@H]3[C@@]4(C)CCC(=O)C(C)(C)[C@@H]4CC[C@]3(C)[C@@]2(C)CC1,> 1400 µM,>2.9,
460 µM,86 µM,CCC(=O)O[C@@H](C[C@@H](C)C1=C2C[C@H](OC(=O)CC)[C@H]3[C@@]4(C)CCC(=O)C(C)(C)[C@@H]4CC[C@]3(C)[C@@]2(C)CC1)[C@@H](OC(=O)CC)C(C)(C)OC(C)=O,> 1700 µM,>3.7,>20
> 1200 µM,> 1200 µM,C[C@H](C[C@H](OC(=O)/C=C/c1ccccc1)[C@@H](OC(=O)/C=C/c1ccccc1)C(C)(C)OC(=O)/C=C/c1ccccc1)C1=C2C[C@H](OC(=O)/C=C/c3ccccc3)[C@H]3[C@@]4(C)CCC(=O)C(C)(C)[C@@H]4CC[C@]3(C)[C@@]2(C)CC1,> 1200 µM,,
> 1900 µM,1500 µM,CC(=O)OC(C)(C)[C@H](OC(=O)C(C)C)[C@H](C[C@@H](C)C1=C2C[C@H](OC(=O)C(C)C)[C@H]3[C@@]4(C)CCC(=O)C(C)(C)[C@@H]4CC[C@]3(C)[C@@]2(C)CC1)OC(=O)C(C)C,> 1900 µM,,>1.3
20 µM,> 51 µM,C[C@H](C[C@H](O[Si](C)(C)C)[C@@H](O[Si](C)(C)C)C(C)(C)O[Si](C)(C)C)C1=C2C[C@H](O[Si](C)(C)C)[C@H]3[C@@]4(C)CCC(=O)C(C)(C)[C@@H]4CC[C@]3(C)[C@@]2(C)CC1,51 µM,2.5,<1
900 µM,> 1900 µM,CCC(=O)O[C@@H](C[C@@H](C)C1=C2C[C@H](OC(=O)CC)[C@H]3[C@@]4(C)CCC(=O)C(C)(C)[C@@H]4CC[C@]3(C)[C@@]2(C)CC1)[C@@H](OC(=O)CC)C(C)(C)OC(=O)CC,> 1900 µM,>2.1,
> 1400 µM,> 1400 µM,C[C@H](C[C@H](OC(=O)COc1ccccc1)[C@@H](OC(=O)COc1ccccc1)C(C)(C)OC(=O)COc1ccccc1)C1=C2C[C@H](OC(=O)COc3ccccc3)[C@H]3[C@@]4(C)CCC(=O)C(C)(C)[C@@H]4CC[C@]3(C)[C@@]2(C)CC1,> 1400 µM,,
46 µM,61 µM,CC(=O)O[C@@H](C[C@@H](C)[C@]12CC[C@@]3(C)[C@@]1(C[C@H](OC(C)=O)[C@H]1[C@@]4(C)CCC(=O)C(C)(C)[C@@H]4CC[C@@]13C)O2)[C@@H](OC(C)=O)C(C)(C)OC(C)=O,> 4000 µM,>87,>66
> 1200 µM,> 1200 µM,C[C@H](C[C@H](OC(=O)COc1cc(Cl)c(Cl)cc1Cl)[C@@H](OC(=O)COc1cc(Cl)c(Cl)cc1Cl)C(C)(C)OC(=O)COc1cc(Cl)c(Cl)cc1Cl)C1=C2C[C@H](OC(=O)COc3cc(Cl)c(Cl)cc3Cl)[C@H]3[C@@]4(C)CCC(=O)C(C)(C)[C@@H]4CC[C@]3(C)[C@@]2(C)CC1,> 1200 µM,,
> 1900 µM,> 1900 µM,CCCC(=O)O[C@@H](C[C@@H](C)[C@]12CC[C@@]3(C)[C@@]1(C[C@H](OC(=O)CCC)[C@H]1[C@@]4(C)CCC(=O)C(C)(C)[C@@H]4CC[C@@]13C)O2)[C@@H](OC(=O)CCC)C(C)(C)OC(=O)CCC,> 1900 µM,,
> 1400 µM,> 1400 µM,CCCCC(=O)O[C@@H](C[C@@H](C)C1=C2C[C@H](OC(=O)CCCC)[C@H]3[C@@]4(C)CCC(=O)C(C)(C)[C@@H]4CC[C@]3(C)[C@@]2(C)CC1)[C@@H](OC(=O)CCCC)C(C)(C)OC(=O)CCCC,> 1400 µM,,
> 2000 µM,> 2000 µM,CC(C)CC(=O)O[C@@H](C[C@@H](C)C1=C2C[C@H](OC(=O)CC(C)C)[C@H]3[C@@]4(C)CCC(=O)C(C)(C)[C@@H]4CC[C@]3(C)[C@@]2(C)CC1)[C@@H](OC(=O)CC(C)C)C(C)(C)OC(=O)CC(C)C,> 2000 µM,,
> 1700 µM,1100 µM,C[C@H](C[C@H](OC(=O)c1ccccc1)[C@@H](OC(=O)c1ccccc1)C(C)(C)OC(=O)c1ccccc1)[C@]12CC[C@@]3(C)[C@@]1(C[C@H](OC(=O)c1ccccc1)[C@H]1[C@@]4(C)CCC(=O)C(C)(C)[C@@H]4CC[C@@]13C)O2,> 1700 µM,,>1.5
> 1700 µM,> 1700 µM,C[C@H](C[C@H](OC(=O)CCC1CCCCC1)[C@@H](OC(=O)CCC1CCCCC1)C(C)(C)OC(=O)CCC1CCCCC1)C1=C2C[C@H](OC(=O)CCC3CCCCC3)[C@H]3[C@@]4(C)CCC(=O)C(C)(C)[C@@H]4CC[C@]3(C)[C@@]2(C)CC1,> 1700 µM,,
> 2100 µM,280 µM,CC(=O)OC1=CC[C@@]2(C)[C@@H](CC[C@@]3(C)[C@H]2[C@@H](OC(C)=O)CC2=C([C@H](C)C[C@H](OC(C)=O)[C@@H](OC(C)=O)C(C)(C)OC(C)=O)CC[C@@]23C)C1(C)C,> 2100 µM,,>7.5
> 2200 µM,1300 µM,CCC(=O)O[C@@H](C[C@@H](C)[C@]12CC[C@@]3(C)[C@@]1(C[C@H](OC(=O)CC)[C@H]1[C@@]4(C)CCC(=O)C(C)(C)[C@@H]4CC[C@@]13C)O2)[C@@H](OC(=O)CC)C(C)(C)OC(=O)CC,> 2200 µM,,>1.7
> 1300 µM,> 1300 µM,C[C@H](C[C@H](OC(=O)CN1C(=O)c2ccccc2C1=O)[C@@H](OC(=O)CN1C(=O)c2ccccc2C1=O)C(C)(C)OC(=O)CN1C(=O)c2ccccc2C1=O)C1=C2C[C@H](OC(=O)CN3C(=O)c4ccccc4C3=O)[C@H]3[C@@]4(C)CCC(=O)C(C)(C)[C@@H]4CC[C@]3(C)[C@@]2(C)CC1,> 1300 µM,,
> 1600 µM,> 1600 µM,CCCCCCCC(=O)O[C@@H](C[C@@H](C)C1=C2C[C@H](OC(=O)CCCCCCC)[C@H]3[C@@]4(C)CCC(=O)C(C)(C)[C@@H]4CC[C@]3(C)[C@@]2(C)CC1)[C@@H](OC(=O)CCCCCCC)C(C)(C)OC(=O)CCCCCCC,> 1600 µM,,
4.4 µM,12 µM,COCC(=O)OC(C)(C)[C@H](OC(C)=O)[C@H](C[C@@H](C)C1=C2C[C@H](OC(C)=O)[C@H]3[C@@]4(C)CCC(=O)C(C)(C)[C@@H]4CC[C@]3(C)[C@@]2(C)CC1)OC(C)=O,920 µM,209,77
> 1100 µM,> 1100 µM,C[C@H](C[C@H](OC(=O)c1cccc([N+](=O)[O-])c1)[C@@H](OC(=O)c1cccc([N+](=O)[O-])c1)C(C)(C)OC(=O)c1cccc([N+](=O)[O-])c1)C1=C2C[C@H](OC(=O)c3cccc([N+](=O)[O-])c3)[C@H]3[C@@]4(C)CCC(=O)C(C)(C)[C@@H]4CC[C@]3(C)[C@@]2(C)CC1,> 1100 µM,,
> 1400 µM,> 1400 µM,C[C@H](C[C@H](OC(=O)c1ccccc1)[C@@H](OC(=O)c1ccccc1)C(C)(C)OC(=O)c1ccccc1)C1=C2C[C@H](OC(=O)c3ccccc3)[C@H]3[C@@]4(C)CCC(=O)C(C)(C)[C@@H]4CC[C@]3(C)[C@@]2(C)CC1,> 1400 µM,,
> 1000 µM,> 1000 µM,C[C@H](C[C@H](OC(=O)c1ccc(Cl)cc1Cl)[C@@H](OC(=O)c1ccc(Cl)cc1Cl)C(C)(C)OC(=O)c1ccc(Cl)cc1Cl)C1=C2C[C@H](OC(=O)c3ccc(Cl)cc3Cl)[C@H]3[C@@]4(C)CCC(=O)C(C)(C)[C@@H]4CC[C@]3(C)[C@@]2(C)CC1,> 1000 µM,,
> 1700 µM,> 1700 µM,CC(=O)OC(C)(C)[C@H](OC(=O)c1ccccc1)[C@H](C[C@@H](C)C1=C2C[C@H](OC(=O)c3ccccc3)[C@H]3[C@@]4(C)CCC(=O)C(C)(C)[C@@H]4CC[C@]3(C)[C@@]2(C)CC1)OC(=O)c1ccccc1,> 1700 µM,,
> 1400 µM,> 1400 µM,C[C@H](C[C@H](OC(=O)/C=C/c1ccccc1Cl)[C@@H](OC(=O)/C=C/c1ccccc1Cl)C(C)(C)OC(=O)/C=C/c1ccccc1Cl)C1=C2C[C@H](OC(=O)/C=C/c3ccccc3Cl)[C@H]3[C@@]4(C)CCC(=O)C(C)(C)[C@@H]4CC[C@]3(C)[C@@]2(C)CC1,> 1400 µM,,
